Data taken from patent US20050070510A1, “Substituted tetracycline compounds as synergistic antifungal agents” (Paratek Pharmaceuticals, Inc., priority 2001, published 2005).

Each molecule was assayed on COS-1 cells (assay: In vitro mammalian cytotoxicity assay (Resazurin)).
`CN(C)[C@@H]1C(O)=C(C(N)=O)C(=O)[C@@]2(C#N)C(O)=C3C(=O)c4c(O)cccc4/C(=C\c4cccc(C(N)=O)c4)[C@@]3(N)[C@H](O)[C@@]12N` [CK] was tested, and the “In Vitro Cytotoxicity” value was “* (toxicities greater than >25 μg/ml are represented by *)”. With `CN(C)c1cc(-c2ccc(Cl)c(Cl)c2)c(O)c2c1C[C@@]1(N)C[C@@]3(N)[C@H](N(C)C)C(O)=C(C(N)=O)C(=O)[C@@]3(C#N)C(O)=C1C2=O` [EV] the “In Vitro Cytotoxicity” value was “** (toxicities less than 25 μg/mL are represented by **)”. `CN(C)[C@@H]1C(O)=C(C(N)=O)C(=O)[C@@]2(C#N)C(O)=C3C(=O)c4c(O)ccc(CNCc5ccc[nH]5)c4C[C@@]3(N)C[C@@]12N` [SI] was tested, and the “In Vitro Cytotoxicity” value was “* (toxicities greater than >25 μg/ml are represented by *)”. `Cc1cc(CNCc2cc(N(C)C)c3c(c2O)C(=O)C2=C(O)[C@]4(C#N)C(=O)C(C(N)=O)=C(O)[C@@H](N(C)C)[C@]4(N)C[C@]2(N)C3)[nH]c1C` [SP] was tested, and the “In Vitro Cytotoxicity” value was “* (toxicities greater than >25 μg/ml are represented by *)”. `CN(C)c1cc(-c2cccc(C(N)=O)c2)c(O)c2c1C[C@@]1(N)C[C@@]3(N)[C@H](N(C)C)C(O)=C(C(N)=O)C(=O)[C@@]3(C#N)C(O)=C1C2=O` [EU] was tested, and the “In Vitro Cytotoxicity” value was “** (toxicities less than 25 μg/mL are represented by **)”. `CN(C)[C@@H]1C(O)=C(C(N)=O)C(=O)[C@@]2(C#N)C(O)=C3C(=O)c4c(O)ccc(I)c4C[C@@]3(N)C[C@@]12N` [CU] was tested, and the “In Vitro Cytotoxicity” value was “** (toxicities less than 25 μg/mL are represented by **)”. For `CN(C)[C@@H]1C(O)=C(C(N)=O)C(=O)[C@@]2(C#N)C(O)=C3C(=O)c4c(O)cccc4/C(=C\c4ccc(F)cc4)[C@@]3(N)[C@H]([S+](N)[O-])[C@@]12N` (some centres unmarked) [BU], the “In Vitro Cytotoxicity” value was “** (toxicities less than 25 μg/mL are represented by **)”. With `CN(C)[C@@H]1C(O)=C(C(N)=O)C(=O)[C@@]2(C#N)C(O)=C3C(=O)c4c(cc(Br)c(N)c4O)[C@H](N)[C@@]3(N)[C@H](O)[C@@]12N` [HY] the “In Vitro Cytotoxicity” value was “* (toxicities greater than >25 μg/ml are represented by *)”. In the case of `COc1ccc(CNc2cc(N(C)C)c3c(c2O)C(=O)C2=C(O)[C@]4(C#N)C(=O)C(C(N)=O)=C(O)[C@@](N)(N(C)C)[C@]4(N)C[C@]2(N)C3)cc1O` [TW], the “In Vitro Cytotoxicity” value is reported as “* (toxicities greater than >25 μg/ml are represented by *)”. In the case of `CN(C)[C@@H]1C(O)=C(C(N)=O)C(=O)[C@@]2(C#N)C(O)=C3C(=O)c4c(ccc(CNC(=O)c5ccccc5)c4O)C[C@@]3(N)C[C@@]12N` [RW], the “In Vitro Cytotoxicity” value is reported as “* (toxicities greater than >25 μg/ml are represented by *)”. In the case of `COCC#Cc1ccc(O)c2c1C[C@@]1(N)C[C@@]3(N)[C@H](N(C)C)C(O)=C(C(N)=O)C(=O)[C@@]3(C#N)C(O)=C1C2=O` [HI], the “In Vitro Cytotoxicity” value is reported as “* (toxicities greater than >25 μg/ml are represented by *)”. `Cc1ccc(-c2ccc(O)c3c2C[C@@]2(N)C[C@@]4(N)[C@H](N(C)C)C(O)=C(C(N)=O)C(=O)[C@@]4(C#N)C(O)=C2C3=O)cc1C` [OJ] was tested, and the “In Vitro Cytotoxicity” value was “** (toxicities less than 25 μg/mL are represented by **)”. `CN(C)[C@@H]1C(O)=C(C(N)=O)C(=O)[C@@]2(C#N)C(O)=C3C(=O)c4c(O)ccc(-c5ccc(CNCc6cccc(F)c6)cc5)c4C[C@@]3(N)C[C@@]12N` [OG] was tested, and the “In Vitro Cytotoxicity” value was “** (toxicities less than 25 μg/mL are represented by **)”. With `CN(C)[C@@H]1C(O)=C(C(N)=O)C(=O)[C@@]2(C#N)C(O)=C3C(=O)c4c(ccc(-c5ccco5)c4O)[C@H](O)[C@@]3(N)[C@H](O)[C@@]12N` [DY] the “In Vitro Cytotoxicity” value was “** (toxicities less than 25 μg/mL are represented by **)”. With `CCCc1cccc(-c2ccc(O)c3c2C[C@@]2(N)C[C@@]4(N)[C@H](N(C)C)C(O)=C(C(N)=O)C(=O)[C@@]4(C#N)C(O)=C2C3=O)c1` [FY] the “In Vitro Cytotoxicity” value was “** (toxicities less than 25 μg/mL are represented by **)”. In the case of `CNc1ccc(NC(=O)Nc2cc(N(C)C)c3c(c2O)C(=O)C2=C(O)[C@]4(C#N)C(=O)C(C(N)=O)=C(O)[C@@H](N(C)C)[C@]4(N)C[C@]2(N)C3)cc1` [SE], the “In Vitro Cytotoxicity” value is reported as “* (toxicities greater than >25 μg/ml are represented by *)”. `CCc1cc(C(C)(C)C)c(O)c2c1C[C@@]1(N)C[C@@]3(N)[C@H](N(C)C)C(O)=C(C(=O)NC(C)(C)C)C(=O)[C@@]3(C#N)C(O)=C1C2=O` [LE] was tested, and the “In Vitro Cytotoxicity” value was “** (toxicities less than 25 μg/mL are represented by **)”. With `COc1ccc(-c2ccc(O)c3c2C[C@@]2(N)C[C@@]4(N)C(N(C)C)C(O)=C(C(N)=O)C(=O)[C@@]4(C#N)C(O)=C2C3=O)cc1C=O` (some centres unmarked) [QV] the “In Vitro Cytotoxicity” value was “** (toxicities less than 25 μg/mL are represented by **)”. With `CN(C)CC(=O)NCc1cc(N(C)C)c2c(c1O)C(=O)C1=C(O)[C@]3(C#N)C(=O)C(C(N)=O)=C(O)[C@@H](N(C)C)[C@]3(N)C[C@]1(N)C2` [LG] the “In Vitro Cytotoxicity” value was “** (toxicities less than 25 μg/mL are represented by **)”. For `COc1ccc(CNCc2cccc(F)c2)cc1-c1ccc(O)c2c1[C@H](N)[C@]1(N)C(=C(O)[C@]3(C#N)C(=O)C(C(N)=O)=C(O)[C@@H](N(C)C)[C@]3(N)[C@H]1O)C2=O` [QL], the “In Vitro Cytotoxicity” value was “* (toxicities greater than >25 μg/ml are represented by *)”. In the case of `CN(C)[C@@H]1C(O)=C(C(N)=O)C(=O)[C@@]2(C#N)C(O)=C3C(=O)c4c(O)ccc(CNCc5cccn5C)c4C[C@@]3(N)C[C@@]12N` [SH], the “In Vitro Cytotoxicity” value is reported as “* (toxicities greater than >25 μg/ml are represented by *)”. In the case of `CN(C)c1cc(NC(=O)OC(C)(C)C)c(O)c2c1C[C@@]1(N)C[C@@]3(N)[C@H](N(C)C)C(O)=C(C(N)=O)C(=O)[C@@]3(C#N)C(O)=C1C2=O` [DN], the “In Vitro Cytotoxicity” value is reported as “** (toxicities less than 25 μg/mL are represented by **)”. `CN(C)[C@@H]1C(O)=C(C(N)=O)C(=O)[C@@]2(C#N)C(O)=C3C(=O)c4c(ccc(NC(=O)Nc5cccc6ccccc56)c4O)[C@H](N)[C@@]3(N)[C@H](OC(=O)Nc3ccccc3)[C@@]12N` [BJ] was tested, and the “In Vitro Cytotoxicity” value was “** (toxicities less than 25 μg/mL are represented by **)”. `COC(=O)C(CC(C)C)NCc1ccc(OC)c(-c2ccc(O)c3c2C[C@@]2(N)C[C@@]4(N)[C@H](N(C)C)C(O)=C(C(N)=O)C(=O)[C@@]4(C#N)C(O)=C2C3=O)c1` (some centres unmarked) [OA] was tested, and the “In Vitro Cytotoxicity” value was “** (toxicities less than 25 μg/mL are represented by **)”. For `CN(C)c1ccc(-c2cc(CN)c(O)c3c2C[C@@]2(N)C[C@@]4(N)[C@H](N(C)C)C(O)=C(C(N)=O)C(=O)[C@@]4(C#N)C(O)=C2C3=O)cc1` [QN], the “In Vitro Cytotoxicity” value was “* (toxicities greater than >25 μg/ml are represented by *)”. In the case of `CN(C)[C@@H]1C(O)=C(C(N)=O)C(=O)[C@@]2(C#N)C(O)=C3C(=O)c4c(O)ccc(-c5ccc(C(F)(F)F)cc5)c4C[C@@]3(N)C[C@@]12N` [FQ], the “In Vitro Cytotoxicity” value is reported as “** (toxicities less than 25 μg/mL are represented by **)”. `CC(C)CNC(=N)Nc1cc(N(C)C)c2c(c1O)C(=O)C1=C(O)[C@]3(C#N)C(=O)C(C(N)=O)=C(O)[C@@H](N(C)C)[C@]3(N)C[C@]1(N)C2` [MM] was tested, and the “In Vitro Cytotoxicity” value was “* (toxicities greater than >25 μg/ml are represented by *)”. With `CN(C)[C@@H]1C(O)=C(C(N)=O)C(=O)[C@@]2(C#N)C(O)=C3C(=O)c4c(O)ccc(-c5ccc(NC(=O)Nc6ccc(OC(F)(F)F)cc6)cc5)c4C[C@@]3(N)C[C@@]12N` [PH] the “In Vitro Cytotoxicity” value was “* (toxicities greater than >25 μg/ml are represented by *)”. In the case of `CN(C)c1cc(-c2ccc(Cl)cc2)c(O)c2c1C[C@@]1(N)C[C@@]3(N)[C@H](N(C)C)C(O)=C(C(N)=O)C(=O)[C@@]3(C#N)C(O)=C1C2=O` [EQ], the “In Vitro Cytotoxicity” value is reported as “** (toxicities less than 25 μg/mL are represented by **)”. In the case of `CC(=O)c1cc(F)c(O)c2c1C[C@@]1(N)C[C@@]3(N)[C@H](N(C)C)C(O)=C(C(N)=O)C(=O)[C@@]3(C#N)C(O)=C1C2=O` [SB], the “In Vitro Cytotoxicity” value is reported as “* (toxicities greater than >25 μg/ml are represented by *)”. With `CCOC(=O)CNC(=O)c1cccc(-c2cc(N(C)C)c3c(c2O)C(=O)C2=C(O)[C@]4(C#N)C(=O)C(C(N)=O)=C(O)[C@@H](N(C)C)[C@]4(N)C[C@]2(N)C3)c1` [LM] the “In Vitro Cytotoxicity” value was “** (toxicities less than 25 μg/mL are represented by **)”. With `Cc1ccc(-c2ccc(O)c3c2C[C@@]2(N)C[C@@]4(N)[C@H](N(C)C)C(O)=C(C(N)=O)C(=O)[C@@]4(C#N)C(O)=C2C3=O)s1` [GJ] the “In Vitro Cytotoxicity” value was “** (toxicities less than 25 μg/mL are represented by **)”. `CN(C)c1cc(NC(=O)Nc2ccc(Cl)cc2C(F)(F)F)c(O)c2c1C[C@@]1(N)C[C@@]3(N)[C@H](N(C)C)C(O)=C(C(N)=O)C(=O)[C@@]3(C#N)C(O)=C1C2=O` [CB] was tested, and the “In Vitro Cytotoxicity” value was “** (toxicities less than 25 μg/mL are represented by **)”. With `CN(C)c1ccc(-c2cc([N+](=O)O)c(O)c3c2C[C@@]2(N)C[C@@]4(N)C(N(C)C)C(O)=C(C(N)=O)C(=O)[C@@]4(C#N)C(O)=C2C3=O)cc1` (some centres unmarked) [RE] the “In Vitro Cytotoxicity” value was “** (toxicities less than 25 μg/mL are represented by **)”. For `COC(=O)c1cc(NC(=O)c2ccno2)cc(-c2ccc(O)c3c2C[C@@]2(N)C[C@@]4(N)C(N(C)C)C(O)=C(C(N)=O)C(=O)[C@@]4(C#N)C(O)=C2C3=O)c1` (some centres unmarked) [RG], the “In Vitro Cytotoxicity” value was “* (toxicities greater than >25 μg/ml are represented by *)”. `CNNC(=O)c1cccc(-c2ccc(O)c3c2C[C@@]2(N)C[C@@]4(N)C(N(C)C)C(O)=C(C(N)=O)C(=O)[C@@]4(C#N)C(O)=C2C3=O)c1` (some centres unmarked) [QY] was tested, and the “In Vitro Cytotoxicity” value was “* (toxicities greater than >25 μg/ml are represented by *)”. In the case of `CCCC(C)(C)NC(=O)C1=C(O)[C@@H](N(C)C)[C@]2(N)[C@@H](O)[C@@]3(N)C(=C(O)[C@]2(C#N)C1=O)C(=O)c1c(O)cccc1[C@@H]3N` [BD], the “In Vitro Cytotoxicity” value is reported as “** (toxicities less than 25 μg/mL are represented by **)”. With `CN(C)[C@@H]1C(O)=C(C(N)=O)C(=O)[C@@]2(C#N)C(O)=C3C(=O)c4c(O)ccc(C#CCNS(C)(=O)=O)c4C[C@@]3(N)C[C@@]12N` [IQ] the “In Vitro Cytotoxicity” value was “* (toxicities greater than >25 μg/ml are represented by *)”. `CN(C)[C@@H]1C(O)=C(C(N)=O)C(=O)[C@@]2(C#N)C(O)=C3C(=O)c4c(O)ccc(NS(C)(=O)=O)c4C[C@@]3(N)C[C@@]12N` [RZ] was tested, and the “In Vitro Cytotoxicity” value was “* (toxicities greater than >25 μg/ml are represented by *)”. With `CN(C)[C@@H]1C(O)=C(C(N)=O)C(=O)[C@@]2(C#N)C(O)=C3C(=O)c4c(O)c(CNC(=O)CCl)cc(-c5ccccc5)c4C[C@@]3(N)C[C@@]12N` [KD] the “In Vitro Cytotoxicity” value was “** (toxicities less than 25 μg/mL are represented by **)”. `CC(=O)OCC(=O)Nc1ccc(-c2ccc(O)c3c2C[C@@]2(N)C[C@@]4(N)[C@H](N(C)C)C(O)=C(C(N)=O)C(=O)[C@@]4(C#N)C(O)=C2C3=O)cc1` [UR] was tested, and the “In Vitro Cytotoxicity” value was “** (toxicities less than 25 μg/mL are represented by **)”.
